Reference: the supplement of paper PMC13380429

Experiments:
[1] = system: A549-ACE2 infected with SARS-CoV-2; assay: cell count relative to DMSO; higher = less toxic; conditions: 24 h
A549-ACE2 [2] = assay: drug-induced phospholipidosis relative to tamoxifen; higher = more phospholipidosis
[3] = system: A549-ACE2 infected with SARS-CoV-2; assay: SARS-CoV-2 infection rate relative to DMSO; higher = more infection; conditions: 24 h
Vero E6 [4] = assay: drug sensitivity score (DSS) for viability; higher = more toxic; extreme values may be limits of the assay; conditions: 72 h
U2OS [5] = assay: as above; conditions: 72 h
Calu-3 [6] = assay: as above; conditions: 72 h
Caco-2 [7] = assay: as above; conditions: 72 h
HepG2 [8] = assay: as above; conditions: 72 h
Vero E6 [9] = assay: cell viability relative to DMSO; higher = less toxic; conditions: 72 h
U2OS [10] = assay: as above; conditions: 72 h
Calu-3 [11] = assay: as above; conditions: 72 h
Caco-2 [12] = assay: as above; conditions: 72 h
HepG2 [13] = assay: as above; conditions: 72 h
Vero E6 [14] = assay: relative viability EC50 (midpoint between 100% and the lowest measured viability); higher = less toxic; conditions: 72 h
U2OS [15] = assay: as above; conditions: 72 h
Calu-3 [16] = assay: as above; conditions: 72 h
Caco-2 [17] = assay: as above; conditions: 72 h
HepG2 [18] = assay: as above; conditions: 72 h
[19] = system: A549-ACE2 infected with SARS-CoV-2; assay: morphology score (similarity to uninfected cells); higher = more like uninfected cells; conditions: 24 h
A549-ACE2 [20] = assay: phospholipidosis EC50; higher = less potent phospholipidosis inducer

COc1ccc2nc3c(c(N)c2c1)CCCC3 [7-methoxytacrine]
cell count ([1]; 0.3 µM): 103% | cell count ([1]; 3 µM): 109% | cell count ([1]; 10 µM): 115% | cell count ([1]; 30 µM): 111% | drug-induced phospholipidosis (A549-ACE2 [2]; 0.3 µM, 24 h): 0.14% | drug-induced phospholipidosis (A549-ACE2 [2]; 0.3 µM, 48 h): 2.14% | drug-induced phospholipidosis (A549-ACE2 [2]; 0.3 µM, 72 h): 5.21% | drug-induced phospholipidosis (A549-ACE2 [2]; 0.833333 µM, 24 h): -0.76% | drug-induced phospholipidosis (A549-ACE2 [2]; 0.833333 µM, 48 h): -1.42% | drug-induced phospholipidosis (A549-ACE2 [2]; 0.833333 µM, 72 h): -1.72% | drug-induced phospholipidosis (A549-ACE2 [2]; 3.33333 µM, 24 h): 0.16% | drug-induced phospholipidosis (A549-ACE2 [2]; 3.33333 µM, 48 h): 1.92% | drug-induced phospholipidosis (A549-ACE2 [2]; 3.33333 µM, 72 h): 1.16% | drug-induced phospholipidosis (A549-ACE2 [2]; 6.66667 µM, 24 h): 7.44% | drug-induced phospholipidosis (A549-ACE2 [2]; 6.66667 µM, 48 h): 4.91% | drug-induced phospholipidosis (A549-ACE2 [2]; 6.66667 µM, 72 h): 5.48% | drug-induced phospholipidosis (A549-ACE2 [2]; 10 µM, 24 h): 14.2% | drug-induced phospholipidosis (A549-ACE2 [2]; 10 µM, 48 h): 9.37% | drug-induced phospholipidosis (A549-ACE2 [2]; 10 µM, 72 h): 11.9% | drug-induced phospholipidosis (A549-ACE2 [2]; 30 µM, 24 h): 83.8% | drug-induced phospholipidosis (A549-ACE2 [2]; 30 µM, 48 h): 110% | drug-induced phospholipidosis (A549-ACE2 [2]; 30 µM, 72 h): 129% | SARS-CoV-2 infection rate ([3]; 0.3 µM): 102% | SARS-CoV-2 infection rate ([3]; 3 µM): 81% | SARS-CoV-2 infection rate ([3]; 10 µM): 34% | SARS-CoV-2 infection rate ([3]; 30 µM): 17% | drug sensitivity score (Vero E6 [4]): 0 | drug sensitivity score (U2OS [5]): 0 | drug sensitivity score (Calu-3 [6]): 0 | drug sensitivity score (Caco-2 [7]): 0 | drug sensitivity score (HepG2 [8]): 2.6 | cell viability (Vero E6 [9]; 1 nM): 102% | cell viability (Vero E6 [9]; 10 nM): 99.8% | cell viability (Vero E6 [9]; 100 nM): 95.6% | cell viability (Vero E6 [9]; 1000 nM): 95.4% | cell viability (Vero E6 [9]; 10000 nM): 98.9% | cell viability (U2OS [10]; 1 nM): 103% | cell viability (U2OS [10]; 10 nM): 102% | cell viability (U2OS [10]; 100 nM): 98.5% | cell viability (U2OS [10]; 1000 nM): 100% | cell viability (U2OS [10]; 10000 nM): 95.3% | cell viability (Calu-3 [11]; 1 nM): 93% | cell viability (Calu-3 [11]; 10 nM): 102% | cell viability (Calu-3 [11]; 100 nM): 91.1% | cell viability (Calu-3 [11]; 1000 nM): 97.7% | cell viability (Calu-3 [11]; 10000 nM): 95.5% | cell viability (Caco-2 [12]; 1 nM): 96% | cell viability (Caco-2 [12]; 10 nM): 98.2% | cell viability (Caco-2 [12]; 100 nM): 96.2% | cell viability (Caco-2 [12]; 1000 nM): 93.8% | cell viability (Caco-2 [12]; 10000 nM): 92.2% | cell viability (HepG2 [13]; 1 nM): 100% | cell viability (HepG2 [13]; 10 nM): 91.4% | cell viability (HepG2 [13]; 100 nM): 92.5% | cell viability (HepG2 [13]; 1000 nM): 79.3% | cell viability (HepG2 [13]; 10000 nM): 83.5% | relative viability EC50 (Vero E6 [14]): > 10 µM | relative viability EC50 (U2OS [15]): > 10 µM | relative viability EC50 (Calu-3 [16]): > 10 µM | relative viability EC50 (Caco-2 [17]): > 10 µM | relative viability EC50 (HepG2 [18]): > 10 µM | morphology score ([19]; 0.3 µM): -0.02 | morphology score ([19]; 3 µM): 0.53 | morphology score ([19]; 10 µM): 0.82 | morphology score ([19]; 30 µM): 0.76

NC1(c2ccc(-c3nc4ccn5c(=O)[nH]nc5c4cc3-c3ccccc3)cc2)CCC1 [MK-2206]
cell count ([1]; 0.1 µM): 100% | cell count ([1]; 0.3 µM): 99% | cell count ([1]; 1 µM): 85% | cell count ([1]; 3 µM): 103% | drug-induced phospholipidosis (A549-ACE2 [2]; 0.3 µM, 24 h): 3.85% | drug-induced phospholipidosis (A549-ACE2 [2]; 0.3 µM, 48 h): 2.41% | drug-induced phospholipidosis (A549-ACE2 [2]; 0.3 µM, 72 h): 0.889% | drug-induced phospholipidosis (A549-ACE2 [2]; 0.833333 µM, 24 h): 16.3% | drug-induced phospholipidosis (A549-ACE2 [2]; 0.833333 µM, 48 h): 16.9% | drug-induced phospholipidosis (A549-ACE2 [2]; 0.833333 µM, 72 h): 14.8% | drug-induced phospholipidosis (A549-ACE2 [2]; 3.33333 µM, 24 h): 76% | drug-induced phospholipidosis (A549-ACE2 [2]; 3.33333 µM, 48 h): 89% | drug-induced phospholipidosis (A549-ACE2 [2]; 3.33333 µM, 72 h): 66.8% | drug-induced phospholipidosis (A549-ACE2 [2]; 6.66667 µM, 24 h): 128% | drug-induced phospholipidosis (A549-ACE2 [2]; 6.66667 µM, 48 h): 158% | drug-induced phospholipidosis (A549-ACE2 [2]; 10 µM, 24 h): 149% | drug-induced phospholipidosis (A549-ACE2 [2]; 10 µM, 48 h): 169% | drug-induced phospholipidosis (A549-ACE2 [2]; 30 µM, 24 h): 82.1% | SARS-CoV-2 infection rate ([3]; 0.1 µM): 105% | SARS-CoV-2 infection rate ([3]; 0.3 µM): 101% | SARS-CoV-2 infection rate ([3]; 1 µM): 97% | SARS-CoV-2 infection rate ([3]; 3 µM): 29% | drug sensitivity score (Vero E6 [4]): 3.9 | drug sensitivity score (U2OS [5]): 2.7 | drug sensitivity score (Calu-3 [6]): 8.7 | drug sensitivity score (Caco-2 [7]): 5.4 | drug sensitivity score (HepG2 [8]): 7.6 | cell viability (Vero E6 [9]; 1 nM): 94% | cell viability (Vero E6 [9]; 10 nM): 94.7% | cell viability (Vero E6 [9]; 100 nM): 93.4% | cell viability (Vero E6 [9]; 1000 nM): 81% | cell viability (Vero E6 [9]; 10000 nM): 63.2% | cell viability (U2OS [10]; 1 nM): 104% | cell viability (U2OS [10]; 10 nM): 103% | cell viability (U2OS [10]; 100 nM): 96.9% | cell viability (U2OS [10]; 1000 nM): 89% | cell viability (U2OS [10]; 10000 nM): 67.8% | cell viability (Calu-3 [11]; 1 nM): 104% | cell viability (Calu-3 [11]; 10 nM): 100% | cell viability (Calu-3 [11]; 100 nM): 84.1% | cell viability (Calu-3 [11]; 1000 nM): 63% | cell viability (Calu-3 [11]; 10000 nM): 38% | cell viability (Caco-2 [12]; 1 nM): 102% | cell viability (Caco-2 [12]; 10 nM): 95.3% | cell viability (Caco-2 [12]; 100 nM): 87.1% | cell viability (Caco-2 [12]; 1000 nM): 75% | cell viability (Caco-2 [12]; 10000 nM): 66.2% | cell viability (HepG2 [13]; 1 nM): 95.6% | cell viability (HepG2 [13]; 10 nM): 93.7% | cell viability (HepG2 [13]; 100 nM): 84.8% | cell viability (HepG2 [13]; 1000 nM): 66.1% | cell viability (HepG2 [13]; 10000 nM): 59% | relative viability EC50 (Calu-3 [16]): 0.49 µM | phospholipidosis EC50 (A549-ACE2 [20]; 24 h): 3.24 µM | phospholipidosis EC50 (A549-ACE2 [20]; 48 h): 3.44 µM | morphology score ([19]; 0.1 µM): 0.19 | morphology score ([19]; 0.3 µM): 0.27 | morphology score ([19]; 1 µM): 0.31 | morphology score ([19]; 3 µM): 0.79
